How the values were obtained:
human neutrophils [1] = conditions: by inhibiting NAD(P)H; cited from earlier work
human neutrophils [2] = conditions: cited from earlier work
human neutrophils [3] = experiment: NETosis assay; format: cell-based; conditions: PMA 50 nM; for PMA-induced NETosis (NETosis positive events over time): T1/T3 10 μM, Trifluoperazine 100 ng/ml, Incucyte, 8 hr
Procedure: NETosis assay: The assay was carried out as previously described (Gupta et al., “A High-Throughput Real-Time Imaging Technique To Quantify NETosis and Distinguish Mechanisms of Cell Death in Human Neutrophils.”, J Immunol. 2018; 200:869-879, herein incorporated by reference in its entirety). Briefly, human neutrophils (2×10^6 cells/mL) were incubated for 5 minutes in the dark at RT with the NUCLEAR-ID Red DNA dye to stain nuclei (Enzo Life Sciences, Inc.). Cells were washed twice and resuspended in 1 mL of RPMI media. NUCLEAR-ID Red stained-neutrophils were plated (20,000 neutrophils per 100 μL per well) in a 96-well flat microplate. Stimulation of neutrophils NETosis was performed with PMA alone (50 nM), or with PMA in the presence of T1 compound (10 μM) or T3 compound (10 μuM). Unstimulated neutrophils served as a negative control. Neutrophils stimulated with PMA in the presence of Trifluoperazine (Stelazine, 100 ng/ml) were used as positive control. A final concentration of 0.1 μM of the membrane impermeable dsDNA fluorescent Sytox® Green nucleic acid stain (Life Technologies, Inc.) was added to the plated cells concomitantly with the stimuli. Neutrophils were imaged within 10 minutes of plating using phase contrast, red (800 ms exposure) and green (400 ms exposure) channels in the IncuCyte ZOOM™ platform (Essen BioScience, Inc.), located within a cell incubator at 37° C. with 5% CO2. Four image sets from distinct regions per well using a 20x dry objective lens were taken every 20-30 minutes, for 8 hr. For red channel, filters were applied to exclude objects below radius of 10 μm, fluorescence threshold of 0.5 red corrected units, and area of 15 μm^2. The filters applied the green channel excluded objects below the radius of 10 μm, fluorescence threshold of 1.00 green corrected units, and area of 100 μm^2. The green object count divided by the red object count represents the percentage of cells going through NETosis of total neutrophils. Liposome preparation: 2.5% DSPE-PEG3400-Maleimide liposomes were prepared in 250 mM ammonium sulfate. Liposomes were prepared at a molar ration of 56.5:41: 2.5:0.09 of HSPC: Cholesterol: DSPE-PEG-Mal: DilC18 (5)-DS.
Besides degranulation, neutrophils can kill pathogens extracellularly by releasing neutrophil extracellular traps (NETs), a process known as NETosis. Examination of NETosis induced by PMA was monitored by an Incucyte live-cell analysis system (FIG. 4). PMA treatment produced a steady increase in NETosis positive events starting at 2 hours after treatment. […] An increase was only observed after 4 hours when T1 was used and after 5 hours when T3 was used.

DSS colitis model mice = experiment: DSS colitis mouse model; format: in vivo, C57BL/6 mice; conditions: 3% DSS 5 days; 2.5 mg/kg of T3 on days 5, 7 and 9
Procedure: Next, the ability of T3 administration, to treat colitis, a disease caused at least in part by neutrophil cytotoxicity, was tested in a mouse model. Colitis was induced in C57BL/6 mice by administration of 3% dextran sulfate sodium (DSS) for 5 consecutive days in drinking water. 2.5 mg/kg of T3, in its three formulations, was administered on days 5, 7 and 9. Colitis induction by DSS caused a pronounced shortening of the mouse colon.
Lower doses of TENN-T3 were also tested. The targeted liposomes were administered at days 5 and 7 and mice were sacrificed on day 10 and colon length was measured.

[4] = test system: peripheral blood neutrophils; experiment: LPS-induced inflammation mouse model, surface CD11b of peripheral blood neutrophils; format: in vivo, Balb/C mice; conditions: LPS 1 mg/kg intraperitoneal; T3 (Z isomer) 3 mg/kg IV after 1 hour; blood after 3 hours
Procedure: The in-vivo effect of the three compositions of T3 was examined in a mouse model of inflammation. Balb/C mice were intraperitoneal injected with 1 mg/kg of LPS to induce inflammation and neutrophil toxicity. After 1 hour, T3—free molecule, T3 within a liposome, and T3 within a targeted liposome (TENN-T3) were IV administered at a final concentration of 3 mg/kg body weight. After 3 hours 0.5 mL of blood was drawn from each mouse and degranulation of peripheral blood neutrophils was evaluated by flow cytometry analysis of surface CD11b levels (neutrophils were identified by Ly6G staining). […] Overall, it is clear that T3 inhibits neutrophil activation in vivo and that targeting greatly enhances the effect.

human neutrophils [5] = conditions: cited from earlier work; remark: listed apart in the source

## c1ccc2c(c1)[I+]c1ccccc1-2 [DPI, Diphenylenciodonium]
Human neutrophils [1]
  ROS production (known effect): nearly completely abolish ROS production

## CC(C)(C)C(=O)/C(=C/c1cccc([N+](=O)[O-])c1)n1cncn1 [Nexinhib-20]
Human neutrophils [2]
  inhibition of degranulation (known): known to inhibit degranulation

## CCN(CC)CCC(C)(C)C(=O)/C(=C/c1cccc([N+](=O)[O-])c1)n1cncn1 [T1]
Human neutrophils [3]; compound 10 μM
  time after which an increase in NETosis was observed: > 4 h
Human neutrophils [3]
  PMA-induced NETosis (NETosis positive events over time): initially inhibited an increase in NETosis completely

## CN1CCC(N2CCC(C(=O)/C(=C/c3cccc([N+](=O)[O-])c3)n3cncn3)CC2)CC1 [T3]
DSS colitis model mice
  colon length: comparable to a negative control
[4]
  reduction in degranulation (surface CD11b of blood neutrophils): moderate but not statistically significant reduction
Human neutrophils [3]; compound 10 μM
  NETosis events compared with control: very similar to control
  time after which an increase in NETosis was observed: > 5 h
Human neutrophils [3]
  PMA-induced NETosis (NETosis positive events over time): initially inhibited an increase in NETosis completely

## CN1CCN(CCCN2c3ccccc3Sc3ccc(C(F)(F)F)cc32)CC1 [Trifluoperazine, reference compound]
Human neutrophils [5]
  inhibition of NETosis (known): known inhibitor of NETosis
Human neutrophils [3]
  PMA-induced NETosis (NETosis positive events over time): steady reduction
